Assay results reported in article doi:10.1101/2024.08.19.608619, “Discovery of potent SARS-CoV-2 nsp3 macrodomain inhibitors uncovers lack of translation to cellular antiviral response” (bioRxiv, 2024).
Read-outs that look alike come from different tables or passages of the source.

Legend:
[1] = biological target: T1, D1 (h) (Homo sapiens, UniProt P21728); assay: In vitro CEREP profiling, D1 (h) (antagonist radioligand); format: binding; details: test compound 10 uM
T1 construct: purchased Eurofins Cerep (SafetyScreen44), recognised from the panel format
From the text: (§1) Supplement media-1.zip/Safety_Panel_Profile.csv, table | column: perc_inhibition

[2] = biological target: T2, acetylcholinesterase (h) (Homo sapiens, UniProt P22303); assay: In vitro CEREP profiling, acetylcholinesterase (h); format: biochemical; details: test compound concentration 10 uM, Enzyme and Cell-based assays
T2 construct: purchased Eurofins Cerep (SafetyScreen44), recognised from the panel format
From the text: as §1

[3] = biological target: T3, CB2 (h) (Homo sapiens, UniProt P34972); assay: In vitro CEREP profiling, CB2 (h) (agonist radioligand); format: binding; details: test compound 10 uM
T3 construct: purchased Eurofins Cerep (SafetyScreen44), recognised from the panel format
From the text: as §1

[4] = biological target: T4, GR (h) (Homo sapiens, UniProt P04150); assay: In vitro CEREP profiling, GR (h) (agonist radioligand); format: binding; details: test compound concentration 10 uM
T4 construct: purchased Eurofins Cerep (SafetyScreen44), recognised from the panel format
T4 sequence (P04150 1-777): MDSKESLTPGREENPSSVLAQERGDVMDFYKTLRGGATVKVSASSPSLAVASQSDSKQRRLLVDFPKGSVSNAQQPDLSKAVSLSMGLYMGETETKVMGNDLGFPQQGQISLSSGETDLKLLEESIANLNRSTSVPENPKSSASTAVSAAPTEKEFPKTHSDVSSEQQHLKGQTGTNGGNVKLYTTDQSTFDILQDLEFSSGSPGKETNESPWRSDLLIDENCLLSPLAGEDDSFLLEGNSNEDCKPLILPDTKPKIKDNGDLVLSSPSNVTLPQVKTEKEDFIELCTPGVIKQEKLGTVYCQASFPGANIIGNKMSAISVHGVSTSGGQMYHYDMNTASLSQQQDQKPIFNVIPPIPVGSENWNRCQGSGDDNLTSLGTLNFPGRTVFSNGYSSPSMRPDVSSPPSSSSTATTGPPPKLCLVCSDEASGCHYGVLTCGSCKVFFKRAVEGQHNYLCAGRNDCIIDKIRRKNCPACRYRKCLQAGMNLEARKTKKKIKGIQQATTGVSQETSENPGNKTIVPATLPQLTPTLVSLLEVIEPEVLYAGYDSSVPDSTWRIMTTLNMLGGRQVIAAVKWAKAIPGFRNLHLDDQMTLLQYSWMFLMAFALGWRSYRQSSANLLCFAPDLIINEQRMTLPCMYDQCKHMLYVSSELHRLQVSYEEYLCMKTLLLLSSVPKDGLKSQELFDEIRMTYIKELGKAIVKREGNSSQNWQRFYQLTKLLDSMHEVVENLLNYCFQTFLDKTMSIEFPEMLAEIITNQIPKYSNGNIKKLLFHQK
From the text: as §1

[5] = biological target: T5, c-RAF(h) (Homo sapiens, UniProt P04049); assay: biochemical; set-up: In vitro kinase panel profiling, per cent remaining kinase activity at 10 uM; details: atp_concentration=120, read-out: % of control remaining
T5 construct: gene RAF1
From the text: (§2) We derisk potential for off-target activity by profiling the compound in a CEREP panel, a standard secondary pharmacology assessment, as well as a kinase panel to derisk a potential hinge-binding motif in our leads, and a PARP panel to derisk activity against human […]. Reassuringly, the compounds are selective, with the only off-targets being moderate human CHRM2 and KOR receptors activity associated with ASAP-0011198.

[6] = biological target: T6, CaMKI(h) (Homo sapiens, UniProt Q14012); assay: biochemical; set-up: In vitro kinase panel profiling, per cent remaining kinase activity at 10 uM; details: atp_concentration=200, read-out: % of control remaining
T6 construct: gene CAMK1
From the text: as §2

[7] = biological target: T7, H1 (h) (Homo sapiens, UniProt P35367); assay: In vitro CEREP profiling, H1 (h) (antagonist radioligand); format: binding; details: test compound concentration 10 uM
T7 construct: purchased Eurofins Cerep (SafetyScreen44), recognised from the panel format
From the text: as §1

[8] = biological target: T8, Lck kinase (h) (Homo sapiens, UniProt P06239); assay: In vitro CEREP profiling, Lck kinase (h); format: biochemical; details: test compound concentration 10 uM, Enzyme and Cell-based assays
T8 construct: purchased Eurofins Cerep (SafetyScreen44), recognised from the panel format
From the text: as §1

[9] = test system: BZD (central); assay: In vitro CEREP profiling, BZD (central) (agonist radioligand); format: binding; details: test compound 10 uM
From the text: as §1

[10] = biological target: NaV1.5 (Homo sapiens, UniProt Q14524); assay: In vitro NaV1.5 cardiotoxicity; details: top test concentration 30 uM
From the text: Supplement media-1.zip/Cardiotoxicity.csv, table | column: ic50_rest_state; ic50_use_dep_block; perc_inhibition_rest_state; perc_inhibition_use_dep_block

[11] = biological target: T9, CB1 (h) (Homo sapiens, UniProt P21554); assay: In vitro CEREP profiling, CB1 (h) (agonist radioligand); format: binding; details: test compound 10 uM
T9 construct: purchased Eurofins Cerep (SafetyScreen44), recognised from the panel format
From the text: as §1

[12] = Protein binding; format: in vitro ADME
From the text: Supplement media-1.zip/Protein_Binding.csv, table | column: fu; perc_bound; perc_free; perc_recovered

[13] = In vitro mouse hepatocyte stability; format: in vitro ADME
From the text: Supplement media-1.zip/Hepatocyte_Stability.csv, table | column: clint; t_half

[14] = biological target: T10, A2A (h) (Homo sapiens, UniProt P29274); assay: In vitro CEREP profiling, A2A (h) (agonist radioligand); format: binding; details: test compound 10 uM
T10 construct: purchased Eurofins Cerep (SafetyScreen44), recognised from the panel format
From the text: as §1

[15] = NaV1.5, rest state, read-out: ic50_rest_state
[16] = NaV1.5, use dependent block, read-out: ic50_use_dep_block
[17] = In vitro dog plasma protein binding
[18] = In vitro fetal calf serum protein binding
[19] = In vitro human plasma protein binding
[20] = In vitro mouse plasma protein binding
[21] = In vitro rat plasma protein binding
[22] = read-out: perc_inhibition (% inhibition of the binding of a ligand specific for each target)

T9 sequence (P21554 whole entry): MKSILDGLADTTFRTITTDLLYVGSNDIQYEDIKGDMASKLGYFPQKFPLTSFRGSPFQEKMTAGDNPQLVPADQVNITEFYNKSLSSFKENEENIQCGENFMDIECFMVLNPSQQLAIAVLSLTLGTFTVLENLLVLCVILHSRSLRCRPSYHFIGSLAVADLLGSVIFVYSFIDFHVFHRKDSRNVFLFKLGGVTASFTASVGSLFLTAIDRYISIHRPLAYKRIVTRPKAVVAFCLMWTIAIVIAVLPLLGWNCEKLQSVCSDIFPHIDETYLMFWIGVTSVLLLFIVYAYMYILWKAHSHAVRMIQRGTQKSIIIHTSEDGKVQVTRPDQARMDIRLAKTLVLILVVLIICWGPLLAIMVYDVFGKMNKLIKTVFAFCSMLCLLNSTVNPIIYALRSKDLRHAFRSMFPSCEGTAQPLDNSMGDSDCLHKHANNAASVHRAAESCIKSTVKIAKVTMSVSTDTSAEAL
T1 sequence (P21728 whole entry): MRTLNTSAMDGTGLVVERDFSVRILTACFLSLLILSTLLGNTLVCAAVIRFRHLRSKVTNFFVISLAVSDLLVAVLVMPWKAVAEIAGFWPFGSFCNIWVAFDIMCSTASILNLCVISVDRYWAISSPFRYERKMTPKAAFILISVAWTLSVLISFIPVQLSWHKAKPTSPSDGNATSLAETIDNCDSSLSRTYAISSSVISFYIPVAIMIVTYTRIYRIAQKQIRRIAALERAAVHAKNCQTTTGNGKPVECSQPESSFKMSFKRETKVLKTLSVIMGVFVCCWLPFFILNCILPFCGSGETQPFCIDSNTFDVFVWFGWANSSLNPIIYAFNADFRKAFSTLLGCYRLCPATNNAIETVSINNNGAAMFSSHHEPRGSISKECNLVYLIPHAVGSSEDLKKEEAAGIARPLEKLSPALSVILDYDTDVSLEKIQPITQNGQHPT
T6 sequence (Q14012 whole entry): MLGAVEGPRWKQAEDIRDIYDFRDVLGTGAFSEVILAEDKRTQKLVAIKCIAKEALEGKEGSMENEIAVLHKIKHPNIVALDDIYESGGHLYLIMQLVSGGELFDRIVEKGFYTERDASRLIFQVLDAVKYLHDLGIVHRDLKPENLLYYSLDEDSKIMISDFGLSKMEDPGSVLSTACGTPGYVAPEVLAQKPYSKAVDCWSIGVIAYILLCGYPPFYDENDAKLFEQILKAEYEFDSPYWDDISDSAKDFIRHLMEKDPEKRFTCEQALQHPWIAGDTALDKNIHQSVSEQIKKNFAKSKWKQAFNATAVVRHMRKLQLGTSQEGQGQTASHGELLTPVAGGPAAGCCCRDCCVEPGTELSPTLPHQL
T5 sequence (P04049 whole entry): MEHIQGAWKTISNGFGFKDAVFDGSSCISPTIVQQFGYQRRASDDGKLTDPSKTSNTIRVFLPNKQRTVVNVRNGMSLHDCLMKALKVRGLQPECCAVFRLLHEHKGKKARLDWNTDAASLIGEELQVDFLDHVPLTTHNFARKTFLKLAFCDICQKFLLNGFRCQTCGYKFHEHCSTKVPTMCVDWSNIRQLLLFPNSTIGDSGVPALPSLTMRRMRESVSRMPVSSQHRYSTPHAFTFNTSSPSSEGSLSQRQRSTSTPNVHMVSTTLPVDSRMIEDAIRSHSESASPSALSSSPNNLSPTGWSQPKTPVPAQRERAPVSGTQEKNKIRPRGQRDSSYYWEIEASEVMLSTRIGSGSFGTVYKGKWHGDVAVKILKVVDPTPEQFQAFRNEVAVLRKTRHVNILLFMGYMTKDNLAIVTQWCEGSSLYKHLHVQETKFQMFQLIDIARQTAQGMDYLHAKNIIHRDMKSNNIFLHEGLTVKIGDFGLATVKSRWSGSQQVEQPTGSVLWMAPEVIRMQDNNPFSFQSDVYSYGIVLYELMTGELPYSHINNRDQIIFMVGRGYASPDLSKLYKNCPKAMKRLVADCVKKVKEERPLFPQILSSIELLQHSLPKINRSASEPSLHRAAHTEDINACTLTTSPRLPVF
NaV1.5, sequence (Q14524 whole entry): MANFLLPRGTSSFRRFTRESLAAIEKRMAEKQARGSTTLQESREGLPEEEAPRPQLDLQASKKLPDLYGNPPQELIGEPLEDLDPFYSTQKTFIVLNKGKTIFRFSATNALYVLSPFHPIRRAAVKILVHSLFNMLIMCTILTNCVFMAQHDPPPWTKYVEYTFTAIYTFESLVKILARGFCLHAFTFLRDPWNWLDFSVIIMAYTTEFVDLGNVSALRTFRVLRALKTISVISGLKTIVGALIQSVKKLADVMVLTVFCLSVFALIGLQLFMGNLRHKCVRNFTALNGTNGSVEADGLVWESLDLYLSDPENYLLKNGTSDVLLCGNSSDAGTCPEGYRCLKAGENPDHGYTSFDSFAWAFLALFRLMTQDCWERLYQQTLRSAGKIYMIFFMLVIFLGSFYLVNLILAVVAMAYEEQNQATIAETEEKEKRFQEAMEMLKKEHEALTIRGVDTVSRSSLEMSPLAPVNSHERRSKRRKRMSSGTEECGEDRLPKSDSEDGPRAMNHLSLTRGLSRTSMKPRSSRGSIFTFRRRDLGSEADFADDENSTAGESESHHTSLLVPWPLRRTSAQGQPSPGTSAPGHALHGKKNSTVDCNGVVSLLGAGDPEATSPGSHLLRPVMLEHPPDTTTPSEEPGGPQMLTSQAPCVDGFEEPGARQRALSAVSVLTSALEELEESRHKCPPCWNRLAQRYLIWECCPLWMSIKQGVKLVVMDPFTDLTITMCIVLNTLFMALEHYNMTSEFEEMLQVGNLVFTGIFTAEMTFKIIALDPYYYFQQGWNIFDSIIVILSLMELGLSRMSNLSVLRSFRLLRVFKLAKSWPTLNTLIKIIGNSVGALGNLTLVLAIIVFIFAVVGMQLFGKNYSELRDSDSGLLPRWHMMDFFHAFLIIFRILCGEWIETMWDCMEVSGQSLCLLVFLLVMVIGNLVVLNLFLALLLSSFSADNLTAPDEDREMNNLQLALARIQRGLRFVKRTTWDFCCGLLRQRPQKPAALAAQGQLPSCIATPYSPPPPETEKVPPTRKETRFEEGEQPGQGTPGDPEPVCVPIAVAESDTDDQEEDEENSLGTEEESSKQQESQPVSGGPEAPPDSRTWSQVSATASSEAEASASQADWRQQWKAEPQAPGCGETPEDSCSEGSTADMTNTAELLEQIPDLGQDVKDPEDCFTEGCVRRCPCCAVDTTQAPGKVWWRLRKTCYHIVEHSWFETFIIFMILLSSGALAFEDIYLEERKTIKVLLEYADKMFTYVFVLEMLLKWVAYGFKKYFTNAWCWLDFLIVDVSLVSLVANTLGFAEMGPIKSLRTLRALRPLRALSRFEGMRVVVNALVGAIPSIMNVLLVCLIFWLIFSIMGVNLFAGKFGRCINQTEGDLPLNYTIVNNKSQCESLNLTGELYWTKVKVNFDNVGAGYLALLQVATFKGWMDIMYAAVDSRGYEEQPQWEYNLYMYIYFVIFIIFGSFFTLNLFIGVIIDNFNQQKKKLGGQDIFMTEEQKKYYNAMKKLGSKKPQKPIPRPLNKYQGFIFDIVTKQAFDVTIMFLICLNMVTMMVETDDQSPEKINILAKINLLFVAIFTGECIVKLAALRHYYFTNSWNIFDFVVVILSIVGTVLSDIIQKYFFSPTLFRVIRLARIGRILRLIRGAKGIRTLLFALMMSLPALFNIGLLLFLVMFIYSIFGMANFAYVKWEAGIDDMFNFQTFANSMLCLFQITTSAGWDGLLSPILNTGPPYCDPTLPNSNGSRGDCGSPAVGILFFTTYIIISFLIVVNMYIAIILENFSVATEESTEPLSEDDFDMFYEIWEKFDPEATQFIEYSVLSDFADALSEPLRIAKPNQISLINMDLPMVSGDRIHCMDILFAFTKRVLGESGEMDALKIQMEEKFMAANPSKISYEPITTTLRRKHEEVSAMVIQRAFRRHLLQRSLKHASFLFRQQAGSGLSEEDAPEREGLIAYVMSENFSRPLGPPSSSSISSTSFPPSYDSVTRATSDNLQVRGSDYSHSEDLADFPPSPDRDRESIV
T3 sequence (P34972 whole entry): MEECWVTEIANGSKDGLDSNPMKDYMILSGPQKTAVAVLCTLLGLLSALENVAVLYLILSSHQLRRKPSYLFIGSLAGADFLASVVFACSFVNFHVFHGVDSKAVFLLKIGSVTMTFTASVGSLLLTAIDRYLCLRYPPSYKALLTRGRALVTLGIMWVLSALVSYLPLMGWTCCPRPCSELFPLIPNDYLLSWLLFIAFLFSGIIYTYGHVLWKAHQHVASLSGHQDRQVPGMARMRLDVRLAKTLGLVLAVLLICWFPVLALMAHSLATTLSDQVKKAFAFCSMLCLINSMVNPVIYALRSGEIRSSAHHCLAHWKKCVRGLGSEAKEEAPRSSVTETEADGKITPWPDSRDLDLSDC
T7 sequence (P35367 whole entry): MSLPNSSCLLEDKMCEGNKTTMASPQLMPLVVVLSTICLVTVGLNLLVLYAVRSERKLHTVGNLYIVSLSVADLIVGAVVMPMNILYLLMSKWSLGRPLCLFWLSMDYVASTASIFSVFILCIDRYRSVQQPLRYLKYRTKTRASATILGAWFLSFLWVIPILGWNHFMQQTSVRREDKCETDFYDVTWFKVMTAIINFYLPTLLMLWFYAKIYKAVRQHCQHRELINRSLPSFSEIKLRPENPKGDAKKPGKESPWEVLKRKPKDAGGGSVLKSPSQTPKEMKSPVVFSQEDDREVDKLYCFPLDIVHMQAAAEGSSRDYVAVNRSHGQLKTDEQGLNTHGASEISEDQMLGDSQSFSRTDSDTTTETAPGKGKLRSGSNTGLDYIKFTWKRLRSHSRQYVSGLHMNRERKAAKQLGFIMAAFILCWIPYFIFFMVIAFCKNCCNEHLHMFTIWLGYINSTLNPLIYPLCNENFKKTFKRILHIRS

Row | Structure (SMILES) | perc_inhibition (% inhibition of the binding of a ligand specific for each target) [1] | perc_inhibition: % inhibition of control enzyme activity, acetylcholinesterase (h) [2] | perc_inhibition (% inhibition of the binding of a ligand specific for each target) [3] | perc_inhibition (% inhibition of the binding of a ligand specific for each target) [4] | perc_inhibition (% inhibition of the binding of a ligand specific for each target) [7] | perc_inhibition: % inhibition of control enzyme activity, Lck kinase (h) [8] | perc_inhibition (% inhibition of the binding of a ligand specific for each target) [9] | perc_inhibition_rest_state ([10]; NaV1.5, rest state) | IC50 [10, 15] | perc_inhibition_use_dep_block ([10]; NaV1.5, use dependent block) | IC50 [10, 16] | perc_inhibition (% inhibition of the binding of a ligand specific for each target) [11] | fu [12, 17] | perc_bound [12, 17] | perc_free [12, 17] | perc_recovered [12, 17] | fu [12, 18] | perc_bound [12, 18] | perc_free [12, 18] | perc_recovered [12, 18] | further results
1 | CC(C)[C@H](Nc1ncnc2[nH]ccc12)c1ccc2c(c1)S(=O)(=O)CCC2 [ASAP-0008674] | -4% | 12% | -13% | 10% | -3% | 10% | 4% | 19.0% | > 30 µM | 29.0% | > 30 µM | -13% | 0.148 | 85.2% | 14.8% | 97.58% | 0.095 | 90.5% | 9.5% | 94.23% | remaining activity at 10 µM ([5]; batch_name=ASAP-0008674-002): 107%; remaining activity at 10 µM ([6]; batch_name=ASAP-0008674-002): 92%; fu [12, 19]: 0.144; perc_bound [12, 19]: 85.6%; perc_free [12, 19]: 14.4%; perc_recovered [12, 19]: 95.79%; fu [12, 20]: 0.124; perc_bound [12, 20]: 87.6%; perc_free [12, 20]: 12.4%; perc_recovered [12, 20]: 89.46%; fu [12, 21]: 0.189; perc_bound [12, 21]: 81.1%; perc_free [12, 21]: 18.9%; perc_recovered [12, 21]: 91.14%; clint [13]: 567.0 uL/min/1E6 cells; t_half [13]: 1.22 min; perc_inhibition (% inhibition of the binding of a ligand specific for each target) [14]: 11%
2 | CC(C)[C@H](Nc1ncnc2[nH]c(-c3cnn(C)c3C#N)cc12)c1ccc2c(n1)OCCO2 [ASAP-0010715] | 27% | 15% | 44% | 11% | 5% | 20% | -2% | 33.0% | > 30 µM | 35.0% | > 30 µM | 46% | 0.042 | 95.8% | 4.24% | 87.48% | 0.072 | 92.8% | 7.24% | 89.85% | remaining activity at 10 µM ([5]; batch_name=ASAP-0010715-002): 97%; remaining activity at 10 µM ([6]; batch_name=ASAP-0010715-002): 104%; fu [12, 19]: 0.005; perc_bound [12, 19]: 99.5%; perc_free [12, 19]: 0.541%; perc_recovered [12, 19]: 113.8%; fu [12, 20]: 0.026; perc_bound [12, 20]: 97.4%; perc_free [12, 20]: 2.56%; perc_recovered [12, 20]: 93.63%; fu [12, 21]: 0.02; perc_bound [12, 21]: 98.0%; perc_free [12, 21]: 2.04%; perc_recovered [12, 21]: 97.27%; clint [13]: 91.6 uL/min/1E6 cells; t_half [13]: 7.57 min; perc_inhibition (% inhibition of the binding of a ligand specific for each target) [14]: 84%
3 | CC(C)[C@@H](Nc1ncnc2[nH]c(-c3cnn(C)c3C#N)cc12)c1ccc2c(n1)OCCO2 [ASAP-0010716] | 10% | 22% | 16% | 22% | 0% | 34% | 8% | 27.0% | > 30 µM | 25.0% | > 30 µM | 14% | 0.029 | 97.1% | 2.93% | 91.53% | 0.038 | 96.2% | 3.84% | 96.46% | remaining activity at 10 µM ([5]; batch_name=ASAP-0010716-002): 90%; remaining activity at 10 µM ([6]; batch_name=ASAP-0010716-002): 95%; fu [12, 19]: 0.005; perc_bound [12, 19]: 99.5%; perc_free [12, 19]: 0.507%; perc_recovered [12, 19]: 111.8%; fu [12, 20]: 0.027; perc_bound [12, 20]: 97.3%; perc_free [12, 20]: 2.67%; perc_recovered [12, 20]: 94.71%; fu [12, 21]: 0.022; perc_bound [12, 21]: 97.8%; perc_free [12, 21]: 2.16%; perc_recovered [12, 21]: 100.0%; clint [13]: 217.0 uL/min/1E6 cells; t_half [13]: 3.19 min; perc_inhibition (% inhibition of the binding of a ligand specific for each target) [14]: 69%
4 | Cc1nn(C)cc1-c1cc2c(NC(c3ccc4c(c3)S(=O)(=O)CCC4)C(C)C)ncnc2[nH]1 (centres unmarked) [ASAP-0011446] | – | – | – | – | – | – | 29% | – | – | – | – | – | – | – | – | – | – | – | – | – | inhibition at 10 µM [1, 22]: 3%; inhibition at 10 µM ([2]; read-out: perc_inhibition: % inhibition of control enzyme activity, acetylcholinesterase (h)): 13%; inhibition at 10 µM [3, 22]: -8%; inhibition at 10 µM ([4]; read-out: perc_inhibition, % inhibition of the binding of a ligand specific for each target): 7%; remaining activity at 10 µM ([5]; batch_name=ASAP-0011446-002): 93%; remaining activity at 10 µM ([6]; batch_name=ASAP-0011446-002): 101%; inhibition at 10 µM [7, 22]: 0%; inhibition at 10 µM ([8]; read-out: perc_inhibition: % inhibition of control enzyme activity, Lck kinase (h)): 33%; inhibition at 10 µM [11, 22]: 0%; inhibition at 10 µM [14, 22]: 13%
